Reference: ChEMBL document CHEMBL4627408, “Metabolic Activation of Pirfenidone Mediated by Cytochrome P450s and Sulfotransferases” (J Med Chem, 2020)
Each block holds one compound with its values, some of them ahead of it.

What was measured:
[1] = Retention time in rat liver microsomes treated with 50 uM pirfenidone incubated for 45 mins in presence of NADPH by LC-MS/MS analysis; assay type: ADME, Microsome; conditions: 0.75 h
[2] = Retention time in rat liver microsomes treated with 50 uM pirfenidone incubated for 45 mins in presence of NADPH and NAC by LC-MS/MS analysis; assay type: ADME, Microsome; conditions: 0.75 h
Cytochrome P450 3A5 [3] = target: T1, Cytochrome P450 3A5 (Homo sapiens, UniProt P20815); assay: Drug level assessed as human recombinant CYP3A5-mediated compound formation using 50 uM pirfenidone incubated for 45 mins in presence of NADPH and glutathione by LC-MS/MS analysis; assay type: ADME; conditions: recombinant enzyme, 0.75 h
T1 sequence (P20815 whole entry): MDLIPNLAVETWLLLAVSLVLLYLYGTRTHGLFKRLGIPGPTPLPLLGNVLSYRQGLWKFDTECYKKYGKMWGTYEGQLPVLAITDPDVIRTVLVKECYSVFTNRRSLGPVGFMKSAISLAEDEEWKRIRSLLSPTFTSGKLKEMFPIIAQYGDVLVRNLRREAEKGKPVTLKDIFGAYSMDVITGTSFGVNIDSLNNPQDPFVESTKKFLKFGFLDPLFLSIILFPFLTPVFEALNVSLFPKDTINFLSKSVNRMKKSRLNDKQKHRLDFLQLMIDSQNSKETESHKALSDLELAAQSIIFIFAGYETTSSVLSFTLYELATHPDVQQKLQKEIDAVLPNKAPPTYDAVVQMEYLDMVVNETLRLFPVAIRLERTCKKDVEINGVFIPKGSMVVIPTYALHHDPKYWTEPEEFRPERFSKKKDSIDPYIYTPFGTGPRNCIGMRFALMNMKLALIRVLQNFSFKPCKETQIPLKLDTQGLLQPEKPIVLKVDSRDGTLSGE

Cytochrome P450 3A4 [4] = target: T2, Cytochrome P450 3A4 (Homo sapiens, UniProt P08684); assay: Drug level assessed as human recombinant CYP3A4-mediated compound formation using 50 uM pirfenidone incubated for 45 mins in presence of NADPH and glutathione by LC-MS/MS analysis; assay type: ADME; conditions: recombinant enzyme, 0.75 h
T2 sequence (P08684 whole entry): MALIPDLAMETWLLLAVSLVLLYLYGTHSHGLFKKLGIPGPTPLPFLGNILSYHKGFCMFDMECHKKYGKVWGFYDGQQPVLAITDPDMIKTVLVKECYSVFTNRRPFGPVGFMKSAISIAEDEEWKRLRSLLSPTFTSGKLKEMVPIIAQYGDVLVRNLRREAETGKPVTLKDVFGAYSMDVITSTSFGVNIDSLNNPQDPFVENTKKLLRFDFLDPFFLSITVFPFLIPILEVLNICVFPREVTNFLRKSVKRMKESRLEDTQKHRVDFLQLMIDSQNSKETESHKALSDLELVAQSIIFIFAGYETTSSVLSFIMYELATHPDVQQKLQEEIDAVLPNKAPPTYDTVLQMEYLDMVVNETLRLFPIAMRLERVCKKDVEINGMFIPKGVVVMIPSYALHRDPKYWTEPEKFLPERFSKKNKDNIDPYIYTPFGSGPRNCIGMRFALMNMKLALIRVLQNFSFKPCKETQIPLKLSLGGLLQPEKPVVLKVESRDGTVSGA

[5] = Drug metabolism in rat liver assessed as formation of GSH-conjugate by measuring hepatic protein adduction formation at 50 to 200 mg/kg, ip measured after 1 hr by LC-MS/MS analysis; assay type: ADME, organism-based; conditions: in vivo
[6] = Drug metabolism in rat liver microsomes assessed as 5-Hydroxymethyl-1-phenyl-1H-pyridine-2-one formation at 50 uM incubated for 45 mins in presence of NADPH and glutathione by LC-MS/MS analysis; assay type: ADME, Microsome; conditions: 0.75 h
Cytochrome P450 3A5 [7] = target: T1, Cytochrome P450 3A5; assay: Drug metabolism assessed as human recombinant CYP3A5-mediated 5-methylene-1-phenyl-pyridin-1-ium-2-one formation at 50 uM incubated for 45 mins in presence of NADPH and glutathione by LC-MS/MS analysis; assay type: ADME; conditions: recombinant enzyme, 0.75 h
Hepatocyte = assay: Toxicity in rat primary hepatocytes at 800 uM; assay type: cell-based
[8] = Toxicity in rat assessed as induction of liver injury at 150 to 200 mg/kg, ip; assay type: organism-based; conditions: in vivo
Cytochrome P450 2A6 = target: T3, Cytochrome P450 2A6 (Homo sapiens, UniProt P11509); assay: Drug metabolism assessed as human recombinant CYP2A6-mediated compound activation using 50 uM pirfenidone incubated for 45 mins in presence of NADPH and glutathione by LC-MS/MS analysis; assay type: ADME; conditions: recombinant enzyme, 0.75 h
T3 sequence (P11509 whole entry): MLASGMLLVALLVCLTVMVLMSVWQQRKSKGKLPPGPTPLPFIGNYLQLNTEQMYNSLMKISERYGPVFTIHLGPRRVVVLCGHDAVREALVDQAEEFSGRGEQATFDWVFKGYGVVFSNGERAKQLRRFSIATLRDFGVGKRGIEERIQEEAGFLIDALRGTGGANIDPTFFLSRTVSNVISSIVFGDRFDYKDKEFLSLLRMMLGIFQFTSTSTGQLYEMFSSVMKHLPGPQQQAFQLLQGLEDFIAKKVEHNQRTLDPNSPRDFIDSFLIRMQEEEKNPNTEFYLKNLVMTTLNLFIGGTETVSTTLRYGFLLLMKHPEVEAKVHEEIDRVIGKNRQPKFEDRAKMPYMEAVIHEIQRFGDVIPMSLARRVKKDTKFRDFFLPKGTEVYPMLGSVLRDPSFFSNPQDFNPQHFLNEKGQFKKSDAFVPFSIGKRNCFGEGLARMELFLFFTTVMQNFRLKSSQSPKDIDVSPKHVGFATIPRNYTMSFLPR

[9] = Drug metabolism in rat liver assessed as formation of GSH-conjugate at 100 mg/kg, ip measured up to 3 hrs by LC-MS/MS analysis; assay type: ADME, organism-based; conditions: in vivo
[10] = Drug metabolism in rat bile assessed as formation of (2R)-2-acetamido-3-[(6-oxo-1-phenyl-3-pyridyl)methylsulfanyl]propanoic acid at 100 mg/kg, ip measured after 2 hrs by LC-MS/MS analysis; assay type: ADME, organism-based; conditions: in vivo
[11] = Drug metabolism in rat liver microsomes assessed as Retention time of GSH metabolite at 50 uM incubated for 45 mins in presence of NADPH and glutathione by LC-MS/MS analysis; assay type: ADME, Microsome; conditions: 0.75 h
[12] = Drug metabolism in rat liver assessed as formation of GSH-conjugate by measuring retention time of cysteine adduct in proteolytic protein samples at 10 to 400 mg/kg, ip measured up to 3 hrs by LC-MS/MS analysis; assay type: ADME, organism-based; conditions: in vivo
Cytochrome P450 3A4 [13] = target: T2, Cytochrome P450 3A4; assay: Drug metabolism assessed as human recombinant CYP3A4-mediated 5-methylene-1-phenyl-pyridin-1-ium-2-one formation at 50 uM incubated for 45 mins in presence of NADPH and glutathione by LC-MS/MS analysis; assay type: ADME; conditions: recombinant enzyme, 0.75 h

- Retention_time [1]: 7.25 min
Structure (SMILES): O=c1ccc(CO)cn1-c1ccccc1

- Retention_time [2]: 7.26 min
Structure (SMILES): CC(=O)N[C@@H](CSCc1ccc(=O)n(-c2ccccc2)c1)C(=O)O

- Drug uptake (Cytochrome P450 3A5 [3]): Metabolite_Detected
- Drug uptake (Cytochrome P450 3A4 [4]): Metabolite_Detected
Structure (SMILES): C=C1C=CC(=O)[N+](c2ccccc2)=C1

- Drug metabolism [5]: Dose-dependent effect
- Drug metabolism [6]: Metabolite_Detected
- Drug metabolism (Cytochrome P450 3A5 [7]): Metabolite_Detected
- Drug metabolism (Cytochrome P450 2A6): Metabolite_Detected
- Drug metabolism [9]: Dose-dependent effect
- Drug metabolism [10]: Metabolite_Detected
- Retention_time [11]: 6.6 min
- Retention_time [12]: 6.24 min
- Drug metabolism (Cytochrome P450 3A4 [13]): Metabolite_Detected
Structure (SMILES): Cc1ccc(=O)n(-c2ccccc2)c1 [PIRFENIDONE]
- Activity (Hepatocyte): Non-Toxic
- Activity [8]: Non-Toxic
